Source: article PMC7561186, “Rational design of balanced dual-targeting antibiotics with limited resistance” (PLoS Biology, 2020)
≈ marks a conversion by molar mass, not a printed value. Where two headings read alike, the source gives them in different places.

System: S. aureus clinical isolates
Test: microbe, parasite or virus in culture
Format: cell-based

Compound: Cc1[nH]c(C(=O)Nc2nc3c(OCc4ccccc4)cc(C(=O)O)cc3s2)c(Cl)c1Cl [ULD2]
- MIC (S. aureus ATCC 29213, MSSA / VSSA, test date 2018-10-25 (three repeat lines)): 0.5 µg/mL (≈ 1.05 µM)
- MIC (Staphylococcus aureus, ATCC 29213 / MSSA, S. aureus ATCC 29213, MSSA / VSSA, test date 2018-10-25 (three repeat lines), read-out: MIC): 0.25 µg/mL (≈ 0.525 µM)
- MIC (Staphylococcus aureus, ATCC 29213 / MSSA, S. aureus ATCC 29213, MSSA / VSSA, test date 2018-11-07, read-out: MIC): 0.25 µg/mL (≈ 0.525 µM)
- MIC (Staphylococcus aureus, MRSA / NRS 3 / VISA, S. aureus IHMA 1308243, NRS3, MRSA / VISA, read-out: MIC): 0.5 µg/mL (≈ 1.05 µM)
- MIC (Staphylococcus aureus, MRSA / NRS 4 / VISA, S. aureus IHMA 649380, NRS4, MRSA / VISA, read-out: MIC): 0.25 µg/mL (≈ 0.525 µM)
- MIC (Staphylococcus aureus, MRSA / NRS 18 / VISA, S. aureus IHMA 649386, NRS18, MRSA / VISA, read-out: MIC): 0.5 µg/mL (≈ 1.05 µM)
- MIC (Staphylococcus aureus, MRSA / NRS 19 / VISA, S. aureus IHMA 649387, NRS19, MRSA / VISA, read-out: MIC): 0.25 µg/mL (≈ 0.525 µM)
- MIC (Staphylococcus aureus, MRSA / NRS 21 / VISA, S. aureus IHMA 649388, NRS21, MRSA / VISA, read-out: MIC): 0.25 µg/mL (≈ 0.525 µM)
- MIC (Staphylococcus aureus, MRSA / NRS 22 / USA600 / VISA, S. aureus IHMA 649389, NRS22, MRSA / VISA, USA600, read-out: MIC): 0.5 µg/mL (≈ 1.05 µM)
- MIC (Staphylococcus aureus, MRSA / NRS 23 / VISA, S. aureus IHMA 649390, NRS23, MRSA / VISA, read-out: MIC): 0.5 µg/mL (≈ 1.05 µM)
- MIC (Staphylococcus aureus, MRSA / NRS 24 / VISA, S. aureus IHMA 649391, NRS24, MRSA / VISA, read-out: MIC): 0.25 µg/mL (≈ 0.525 µM)
- MIC (Staphylococcus aureus, MRSA / NRS 26, S. aureus IHMA 649392, NRS26, MRSA / VSSA, read-out: MIC): 0.5 µg/mL (≈ 1.05 µM)
- MIC (Staphylococcus aureus, MRSA / NRS 27 / VISA, S. aureus IHMA 1308248, NRS27, MRSA / VISA, read-out: MIC): 0.5 µg/mL (≈ 1.05 µM)
- MIC (Staphylococcus aureus, MRSA / NRS 29 / VISA, S. aureus IHMA 1308250, NRS29, MRSA / VISA, read-out: MIC): 0.25 µg/mL (≈ 0.525 µM)
- MIC (Staphylococcus aureus, MRSA / NRS 37 / VISA, S. aureus IHMA 1308251, NRS37, MRSA / VISA, read-out: MIC): 0.5 µg/mL (≈ 1.05 µM)
- MIC (Staphylococcus aureus, MRSA / NRS 54, S. aureus IHMA 1308253, NRS54, MRSA / VSSA* (*Expected VAN intermediate, confirmed VAN susceptible twice), test date 2018-11-07, read-out: MIC): 0.12 µg/mL (≈ 0.252 µM)
- MIC (Staphylococcus aureus, MRSA / NRS 56 / VISA, S. aureus IHMA 1308254, NRS56, MRSA / VISA, read-out: MIC): 0.25 µg/mL (≈ 0.525 µM)
- MIC (Staphylococcus aureus, MRSA / USA100 / VRSA, S. aureus IHMA 672230, VRS1, MRSA / VRSA, USA100, read-out: MIC): 0.25 µg/mL (≈ 0.525 µM)
- MIC (Staphylococcus aureus, MRSA / USA100 / VRSA, S. aureus IHMA 672231, VRS2, MRSA / VRSA, USA100, read-out: MIC): 0.25 µg/mL (≈ 0.525 µM)
- MIC (Staphylococcus aureus, MRSA / USA100 / VRSA, S. aureus IHMA 672234, VRS4, MRSA / VRSA, USA100, read-out: MIC): 0.25 µg/mL (≈ 0.525 µM)
- MIC (Staphylococcus aureus, MRSA / USA100 / VRSA, S. aureus IHMA 672235, VRS5, MRSA / VRSA, USA100, read-out: MIC): 0.25 µg/mL (≈ 0.525 µM)
- MIC (Staphylococcus aureus, MRSA / USA100 / VRSA, S. aureus IHMA 672237, VRS7, MRSA / VRSA, USA100, read-out: MIC): 0.25 µg/mL (≈ 0.525 µM)
- MIC (Staphylococcus aureus, MRSA / USA100 / VRSA, S. aureus IHMA 672238, VRS8, MRSA / VRSA, USA100, read-out: MIC): 0.25 µg/mL (≈ 0.525 µM)
- MIC (Staphylococcus aureus, MRSA / USA100 / VRSA, S. aureus IHMA 672239, VRS9, MRSA / VRSA, USA100, read-out: MIC): 0.25 µg/mL (≈ 0.525 µM)
- MIC (Staphylococcus aureus, MRSA / USA100 / VRSA, S. aureus IHMA 1308256, VRS10, MRSA / VRSA, USA100, read-out: MIC): 0.5 µg/mL (≈ 1.05 µM)
- MIC (Staphylococcus aureus, MRSA / USA100 / VRSA, S. aureus IHMA 1308258, VRS11b, MRSA / VRSA, USA100, read-out: MIC): 0.25 µg/mL (≈ 0.525 µM)
- MIC (Staphylococcus aureus, MRSA / USA800 / VRSA, S. aureus IHMA 672233, VRS3b, MRSA / VRSA, USA800, read-out: MIC): 0.06 µg/mL (≈ 0.126 µM)
- MIC (Staphylococcus aureus, MRSA / VISA / VRSA, all isolates of the panel (MRSA, VISA, VRSA), read-out: MIC against all tested S. aureus clinical isolates): ≤ 1 µg/mL
- MIC (Staphylococcus aureus, MRSA, S. aureus IHMA 1569509, MRSA / VSSA, read-out: MIC): 0.12 µg/mL (≈ 0.252 µM)
- MIC (Staphylococcus aureus, MRSA, S. aureus IHMA 1575268, MRSA / VSSA, read-out: MIC): 0.25 µg/mL (≈ 0.525 µM)
- MIC (Staphylococcus aureus, MRSA, S. aureus IHMA 1575629, MRSA / VSSA, read-out: MIC): 0.25 µg/mL (≈ 0.525 µM)
- MIC (Staphylococcus aureus, MRSA, S. aureus IHMA 1577820, MRSA / VSSA, read-out: MIC): 0.5 µg/mL (≈ 1.05 µM)
- MIC (Staphylococcus aureus, MRSA, S. aureus IHMA 1580300, MRSA / VSSA, read-out: MIC): 0.12 µg/mL (≈ 0.252 µM)
- MIC (Staphylococcus aureus, MRSA, S. aureus IHMA 1580940, MRSA / VSSA, read-out: MIC): 0.5 µg/mL (≈ 1.05 µM)
- MIC (Staphylococcus aureus, MRSA, S. aureus IHMA 1582100, MRSA / VSSA, read-out: MIC): 0.25 µg/mL (≈ 0.525 µM)
- MIC (Staphylococcus aureus, MRSA, S. aureus IHMA 1583795, MRSA / VSSA, read-out: MIC): 1 µg/mL (≈ 2.1 µM)
- MIC (Staphylococcus aureus, MRSA, S. aureus IHMA 1584223, MRSA / VSSA, read-out: MIC): 0.5 µg/mL (≈ 1.05 µM)
- MIC (Staphylococcus aureus, MRSA, S. aureus IHMA 1585316, MRSA / VSSA, read-out: MIC): 0.25 µg/mL (≈ 0.525 µM)
- MIC (Staphylococcus aureus, MRSA, S. aureus IHMA 1586780, MRSA / VSSA, read-out: MIC): 0.25 µg/mL (≈ 0.525 µM)
- MIC (Staphylococcus aureus, MRSA, S. aureus IHMA 1587322, MRSA / VSSA, read-out: MIC): 0.25 µg/mL (≈ 0.525 µM)
- MIC (Staphylococcus aureus, MRSA, S. aureus IHMA 1588127, MRSA / VSSA, read-out: MIC): 0.25 µg/mL (≈ 0.525 µM)
- MIC (Staphylococcus aureus, MRSA, S. aureus IHMA 1591462, MRSA / VSSA, read-out: MIC): 0.12 µg/mL (≈ 0.252 µM)
- MIC (Staphylococcus aureus, MRSA, S. aureus IHMA 1592755, MRSA / VSSA, read-out: MIC): 0.5 µg/mL (≈ 1.05 µM)
- MIC (Staphylococcus aureus, MRSA, S. aureus IHMA 1592776, MRSA / VSSA, read-out: MIC): 0.25 µg/mL (≈ 0.525 µM)
- MIC (Staphylococcus aureus, MRSA, S. aureus IHMA 1597106, MRSA / VSSA, read-out: MIC): 0.5 µg/mL (≈ 1.05 µM)
- MIC (Staphylococcus aureus, MRSA, S. aureus IHMA 1602095, MRSA / VSSA, read-out: MIC): 0.25 µg/mL (≈ 0.525 µM)
- MIC (Staphylococcus aureus, MRSA, S. aureus IHMA 1611170, MRSA / VSSA, read-out: MIC): 0.25 µg/mL (≈ 0.525 µM)
- MIC (Staphylococcus aureus, MRSA, S. aureus IHMA 1611612, MRSA / VSSA, read-out: MIC): 0.25 µg/mL (≈ 0.525 µM)
- MIC (Staphylococcus aureus, MRSA, S. aureus IHMA 1612228, MRSA / VSSA, read-out: MIC): 0.25 µg/mL (≈ 0.525 µM)
- MIC (Staphylococcus aureus, MRSA, S. aureus IHMA 1620441, MRSA / VSSA, read-out: MIC): 0.25 µg/mL (≈ 0.525 µM)
- MIC (Staphylococcus aureus, MRSA, S. aureus IHMA 1621638, MRSA / VSSA, read-out: MIC): 0.5 µg/mL (≈ 1.05 µM)
- MIC (Staphylococcus aureus, MRSA, S. aureus IHMA 1622252, MRSA / VSSA, read-out: MIC): 0.5 µg/mL (≈ 1.05 µM)
- MIC (Staphylococcus aureus, MRSA, S. aureus IHMA 1622527, MRSA / VSSA, read-out: MIC): 0.25 µg/mL (≈ 0.525 µM)
- MIC (Staphylococcus aureus, MRSA, S. aureus IHMA 1666371, MRSA / VSSA, read-out: MIC): 0.25 µg/mL (≈ 0.525 µM)
- MIC (Staphylococcus aureus, MRSA, S. aureus IHMA 1695391, MRSA / VSSA, read-out: MIC): 0.12 µg/mL (≈ 0.252 µM)
- MIC (Staphylococcus aureus, MRSA, S. aureus IHMA 1703428, MRSA / VSSA, read-out: MIC): 0.5 µg/mL (≈ 1.05 µM)
- MIC (Staphylococcus aureus, MRSA, S. aureus IHMA 1720350, MRSA / VSSA, read-out: MIC): 0.5 µg/mL (≈ 1.05 µM)
- MIC (Staphylococcus aureus, MRSA, S. aureus IHMA 1732989, MRSA / VSSA, read-out: MIC): 0.5 µg/mL (≈ 1.05 µM)
- MIC (Staphylococcus aureus, MRSA, S. aureus IHMA 1742231, MRSA / VSSA, read-out: MIC): 0.12 µg/mL (≈ 0.252 µM)
